ChEMBL document CHEMBL1201862, “PubChem BioAssay data set” (2004)
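Results reflect a 48-hour exposure of cells in 96-well plates to compound at five concentrations. GI50: concentration for 50% inhibition of growth.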 The source made the active and inactive calls. Rule as the data show it: active = GI50 up to about 1.1 µM and inactive = higher.

What was measured:
Experiment in all cases: NCI-60 cell line screen, 48 h
[1] = tested on: ACHN
[2] = tested on: CAKI-1
[3] = tested on: CCRF-CEM
[4] = tested on: COLO 205
[5] = tested on: EKVX
[6] = tested on: HCT-116
[7] = tested on: HL-60
[8] = tested on: IGROV-1
[9] = tested on: MOLT-4
[10] = tested on: Malme-3M
[11] = tested on: NCI-H522
[12] = tested on: SF-295
[13] = tested on: SK-OV-3
[14] = tested on: SNB-19
[15] = tested on: SW-620
[16] = tested on: TK-10
[17] = tested on: A498
[18] = tested on: SK-MEL-5
[19] = tested on: SNB-75

Measured: GI50

CC(=O)NNc1nc(C)c(C(=O)/C=C/c2ccc(/C=C/C(=O)c3sc(NNC(C)=O)nc3C)cc2)s1
inactive: [1] > 100 µM | [2] > 100 µM | [3] > 100 µM | [4] > 100 µM | [5] 57.3 µM | [6] > 100 µM | [7] > 100 µM | [8] > 100 µM | [9] > 100 µM | [10] > 100 µM | [11] > 100 µM | [12] > 100 µM | [13] > 100 µM | [14] > 100 µM | [15] > 100 µM | [16] > 100 µM

COC(=O)C(Br)C1CCc2ccccc21 (stereo unspecified)
inactive: [17] > 100 µM | [1] > 100 µM | [2] > 100 µM | [3] 48.1 µM | [4] > 100 µM | [6] > 100 µM | [7] 26.5 µM | [8] > 100 µM | [9] 68.7 µM | [10] > 100 µM | [12] 52.6 µM | [18] > 100 µM | [13] > 100 µM | [14] 82.2 µM | [15] > 100 µM | [16] > 100 µM

NC(=O)CCC(NC(=O)C(F)(F)F)C(=O)O (stereo unspecified)
inactive: [17] > 100 µM | [1] > 100 µM | [2] > 100 µM | [3] > 100 µM | [4] > 100 µM | [5] > 100 µM | [6] > 100 µM | [8] > 100 µM | [9] > 100 µM | [10] > 100 µM | [11] > 100 µM | [12] > 100 µM | [18] > 100 µM | [13] > 100 µM | [14] > 100 µM | [19] > 100 µM | [15] > 100 µM | [16] > 100 µM

Cc1nnc2c3nnc(C)n3c3ccccc3n12
inactive: [17] > 100 µM | [1] > 100 µM | [2] > 100 µM | [3] > 100 µM | [4] > 100 µM | [5] > 100 µM | [6] > 100 µM | [8] > 100 µM | [9] > 100 µM | [10] > 100 µM | [11] > 100 µM | [12] > 100 µM | [18] > 100 µM | [13] > 100 µM | [14] > 100 µM | [19] > 100 µM | [15] > 100 µM | [16] > 100 µM

COC(=O)CC(NC(=O)OCc1ccccc1)C(C(=O)OCc1ccccc1)C(C)(OC)OC (stereo unspecified)
inactive: [17] 3.95 µM | [1] 26.4 µM | [3] 13 µM | [4] 16.9 µM | [5] 29.7 µM | [6] 34.3 µM | [7] 15.1 µM | [8] 19.6 µM | [9] 5.94 µM | [10] 28 µM | [12] 24.6 µM | [18] 12.4 µM | [14] 38.2 µM | [19] 16.4 µM | [15] 32.9 µM | [16] 39.2 µM

CCOC1c2cc(C(C)C)c(O)c(O)c2[C@@]23CCCC(C)(C)C2C1OC3=O (stereo partly specified)
inactive: [1] 78 µM | [2] > 100 µM | [3] 47.4 µM | [4] > 100 µM | [5] > 100 µM | [6] > 100 µM | [7] 93.1 µM | [8] > 100 µM | [9] 50 µM | [10] > 100 µM | [11] 30.6 µM | [12] > 100 µM | [18] 70.3 µM | [13] > 100 µM | [14] > 100 µM | [19] 47.8 µM | [15] > 100 µM | [16] > 100 µM

C#C[C@@H](CCCC)OC(=O)N[C@H](C)c1ccccc1
inactive: [1] 43.8 µM | [2] 42.9 µM | [3] 25.7 µM | [4] 2.45 µM | [5] 60.7 µM | [6] 34.3 µM | [7] 15.3 µM | [8] 23 µM | [9] 27.3 µM | [11] 1.74 µM | [12] 77.1 µM | [18] 20.6 µM | [13] > 100 µM | [14] 93.3 µM | [19] 33.3 µM | [15] 51.9 µM | [16] 29.2 µM

CC/C=C\C/C=C\C1CC(=O)NCCCNCCCCN1 (stereo unspecified)
inactive: [2] > 100 µM | [4] > 100 µM | [5] > 100 µM | [6] > 100 µM | [7] > 100 µM | [10] 15.6 µM | [11] 55.3 µM | [12] > 100 µM | [18] > 100 µM | [14] > 100 µM | [19] > 100 µM | [15] > 100 µM | [16] > 100 µM

CCCP1(=O)C=C(C)C(=C(Cl)Cl)C(C)=C1 (stereo unspecified)
inactive: [17] 68.9 µM | [1] 44.3 µM | [3] 39.5 µM | [4] 36.1 µM | [5] 83 µM | [6] 41.2 µM | [7] 21.6 µM | [8] 70 µM | [9] 31 µM | [10] 25.7 µM | [11] 18.3 µM | [12] 35.2 µM | [18] 24.1 µM | [15] 32.1 µM | [16] > 100 µM

CCCCCCCCCCCCCC(=O)OCC(C[As](=O)(O)O)OC(=O)CCCCCCCCCCCCC (stereo unspecified)
inactive: [17] > 100 µM | [1] > 100 µM | [2] > 100 µM | [3] > 100 µM | [5] > 100 µM | [6] > 100 µM | [8] > 100 µM | [9] > 100 µM | [10] > 100 µM | [11] > 100 µM | [18] > 100 µM | [13] > 100 µM | [14] > 100 µM | [19] > 100 µM | [15] 18.6 µM | [16] > 100 µM

c1cnc2c(c1)-n1cccc1C1(CCSCC1)NN2
inactive: [1] > 100 µM | [2] 88.5 µM | [3] > 100 µM | [4] > 100 µM | [5] > 100 µM | [6] > 100 µM | [7] 39.6 µM | [9] 50.2 µM | [10] > 100 µM | [11] 95.3 µM | [12] > 100 µM | [18] > 100 µM | [14] > 100 µM | [19] 53.5 µM | [15] > 100 µM | [16] 42.6 µM

COc1ccc2c(c1)N=C1CSC(c3cc([N+](=O)[O-])ccc3Cl)N1C2 (stereo unspecified)
inactive: [1] 20 µM | [2] 22 µM | [4] 30.1 µM | [5] 18.3 µM | [6] 20.1 µM | [7] 22.5 µM | [8] 34.5 µM | [9] 22.5 µM | [10] 23.2 µM | [11] 21.5 µM | [12] 30.5 µM | [18] 40.6 µM | [13] 25.2 µM | [14] 32.3 µM | [19] 19.2 µM | [15] 29.3 µM | [16] 21.4 µM
